# How the values were obtained:
# [1] = tested on: nitrification (soil microbial biomass); test: inhibition of nitrification in soil incubation test (ammonium and nitrate content after 0 and 14 days); conditions: compound at 1% of nitrogen N, 100 g soil, 10 mg ammoniumsulfate-N, 20° C., best obtained NI value
# Description: The compounds of the invention have been tested as follows in terms of the inhibition of nitrification: 100 g soil is filled into 500 ml plastic bottles (e.g. soil sampled from the field) and is moistened to 50% water holding capacity. The soil is incubated at 20° C. for two weeks to activate the microbial biomass. 1 ml test solution, containing the compound in the appropriate concentration (usually 0.3 or 1% of nitrogen N), or DMSO and 10 mg nitrogen in the form of ammoniumsulfate-N is added to the soil and everything mixed well. Bottles are capped but loosely to allow air exchange. The bottles are then incubated at 20° C. for 0 and 14 days. For analysis, 300 ml of a 1% K2SO4-solution is added to the bottle containing the soil and shaken for 2 hours in a horizontal shaker at 150 rpm. Then the whole solution is filtered through a filter (Macherey-Nagel Filter MN 807 ¼). Ammonium and nitrate content is then analyzed in the filtrate in an autoanalyzer at 550 nm (Merck, AA11). The inhibition (NI @ a specified concentration) is calculated as follows: [formula]
# [2] = volatility of prior-art nitrification inhibitor; assay type: physicochemical; conditions: stated as disadvantageous for long-term applications
Structure (SMILES),NI* @ 1% [1],volatility [2]
CCOc1[nH]nc(C)c1Cl [compound 9],22.0,
CCOc1cc(C)[nH]n1 [3-ethoxy-5-methylpyrazole],,high volatility
